Key:
PKCd = PKCd (Homo sapiens, UniProt Q05655); assay: biochemical; conditions: read-out: % enzyme activity, 1 μM; Run 1, Run 2
YES/YES1 = YES/YES1 (Homo sapiens, UniProt P07947); assay: biochemical; conditions: read-out: % enzyme activity, 1 μM; Run 1, Run 2
CSK = CSK (Homo sapiens, UniProt P41240); conditions: 1 μM; Run 1, Run 2
PASK = PASK (Homo sapiens, UniProt Q96RG2); assay: biochemical; conditions: read-out: % enzyme activity, 1 μM; Run 1, Run 2
TESK2 = TESK2 (Homo sapiens, UniProt Q96S53); conditions: 1 μM; Run 1, Run 2
PKN1/PRK1 = PKN1/PRK1 (Homo sapiens, UniProt Q16512); conditions: 1 μM; Run 1, Run 2
STK21/CIT = STK21/CIT (Homo sapiens, UniProt O14578); assay: biochemical; conditions: read-out: % enzyme activity, 1 μM; Run 1, Run 2
BMX/ETK = target: T1, BMX/ETK (Homo sapiens, UniProt P51813); conditions: 1 μM; Run 1, Run 2
T1 sequence (P51813 1-675): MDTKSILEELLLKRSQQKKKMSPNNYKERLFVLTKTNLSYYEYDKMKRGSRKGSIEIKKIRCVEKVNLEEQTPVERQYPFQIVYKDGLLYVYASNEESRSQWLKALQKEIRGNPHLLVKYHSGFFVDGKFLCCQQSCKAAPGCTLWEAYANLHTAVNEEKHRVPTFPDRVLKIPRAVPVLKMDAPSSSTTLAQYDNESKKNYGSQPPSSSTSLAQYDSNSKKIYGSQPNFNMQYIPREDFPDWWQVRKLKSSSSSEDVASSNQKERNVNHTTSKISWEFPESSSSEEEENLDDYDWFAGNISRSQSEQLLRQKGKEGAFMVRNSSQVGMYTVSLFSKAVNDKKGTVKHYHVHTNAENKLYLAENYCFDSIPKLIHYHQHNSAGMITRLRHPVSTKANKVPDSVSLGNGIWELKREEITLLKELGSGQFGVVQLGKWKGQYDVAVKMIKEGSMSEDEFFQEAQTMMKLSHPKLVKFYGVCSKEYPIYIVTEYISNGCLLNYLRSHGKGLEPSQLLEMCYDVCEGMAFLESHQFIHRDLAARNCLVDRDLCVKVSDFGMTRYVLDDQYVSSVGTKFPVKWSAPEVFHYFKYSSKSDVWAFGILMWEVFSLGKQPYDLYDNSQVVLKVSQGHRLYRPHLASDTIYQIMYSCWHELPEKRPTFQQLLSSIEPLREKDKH

TYRO3/SKY = target: T2, TYRO3/SKY (Homo sapiens, UniProt Q06418); conditions: 1 μM; Run 1, Run 2
T2 sequence (Q06418 41-890): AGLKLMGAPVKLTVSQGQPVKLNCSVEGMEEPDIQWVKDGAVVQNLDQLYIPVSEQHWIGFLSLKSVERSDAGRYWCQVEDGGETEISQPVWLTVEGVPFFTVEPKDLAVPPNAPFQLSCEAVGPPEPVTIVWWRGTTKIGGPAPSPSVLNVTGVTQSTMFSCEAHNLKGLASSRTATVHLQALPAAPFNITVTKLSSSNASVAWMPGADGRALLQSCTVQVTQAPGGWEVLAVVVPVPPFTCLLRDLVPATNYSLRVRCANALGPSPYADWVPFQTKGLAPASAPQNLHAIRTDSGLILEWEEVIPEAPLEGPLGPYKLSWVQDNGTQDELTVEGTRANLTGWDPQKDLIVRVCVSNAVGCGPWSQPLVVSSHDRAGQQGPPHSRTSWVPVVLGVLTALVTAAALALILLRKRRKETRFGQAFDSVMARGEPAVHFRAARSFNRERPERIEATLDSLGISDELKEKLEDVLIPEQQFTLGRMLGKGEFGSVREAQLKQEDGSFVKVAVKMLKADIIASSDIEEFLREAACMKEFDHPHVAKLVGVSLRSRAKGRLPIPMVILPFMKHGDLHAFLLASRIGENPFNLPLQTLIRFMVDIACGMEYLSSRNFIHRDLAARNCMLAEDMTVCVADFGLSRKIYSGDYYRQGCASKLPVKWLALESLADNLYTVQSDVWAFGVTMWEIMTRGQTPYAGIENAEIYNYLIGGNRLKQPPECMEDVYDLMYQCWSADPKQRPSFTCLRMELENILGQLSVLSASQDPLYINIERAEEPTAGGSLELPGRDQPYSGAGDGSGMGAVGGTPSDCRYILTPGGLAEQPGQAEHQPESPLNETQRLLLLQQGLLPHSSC

MEK1 = MEK1 (Homo sapiens, UniProt Q02750); assay: biochemical; conditions: read-out: % enzyme activity, 1 μM; Run 1, Run 2
Chain of MEK1 (Q02750 whole entry): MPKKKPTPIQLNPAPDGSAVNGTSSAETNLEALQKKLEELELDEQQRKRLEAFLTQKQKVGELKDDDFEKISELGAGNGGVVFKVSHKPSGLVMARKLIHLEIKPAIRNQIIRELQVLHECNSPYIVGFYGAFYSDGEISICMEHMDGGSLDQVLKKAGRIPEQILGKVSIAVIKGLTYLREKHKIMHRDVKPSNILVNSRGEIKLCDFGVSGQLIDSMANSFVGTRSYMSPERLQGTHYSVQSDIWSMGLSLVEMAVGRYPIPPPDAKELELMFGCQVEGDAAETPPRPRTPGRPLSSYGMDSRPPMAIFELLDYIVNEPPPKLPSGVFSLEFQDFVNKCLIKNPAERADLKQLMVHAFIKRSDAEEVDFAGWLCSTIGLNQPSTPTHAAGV

Chain of STK21/CIT (O14578 whole entry): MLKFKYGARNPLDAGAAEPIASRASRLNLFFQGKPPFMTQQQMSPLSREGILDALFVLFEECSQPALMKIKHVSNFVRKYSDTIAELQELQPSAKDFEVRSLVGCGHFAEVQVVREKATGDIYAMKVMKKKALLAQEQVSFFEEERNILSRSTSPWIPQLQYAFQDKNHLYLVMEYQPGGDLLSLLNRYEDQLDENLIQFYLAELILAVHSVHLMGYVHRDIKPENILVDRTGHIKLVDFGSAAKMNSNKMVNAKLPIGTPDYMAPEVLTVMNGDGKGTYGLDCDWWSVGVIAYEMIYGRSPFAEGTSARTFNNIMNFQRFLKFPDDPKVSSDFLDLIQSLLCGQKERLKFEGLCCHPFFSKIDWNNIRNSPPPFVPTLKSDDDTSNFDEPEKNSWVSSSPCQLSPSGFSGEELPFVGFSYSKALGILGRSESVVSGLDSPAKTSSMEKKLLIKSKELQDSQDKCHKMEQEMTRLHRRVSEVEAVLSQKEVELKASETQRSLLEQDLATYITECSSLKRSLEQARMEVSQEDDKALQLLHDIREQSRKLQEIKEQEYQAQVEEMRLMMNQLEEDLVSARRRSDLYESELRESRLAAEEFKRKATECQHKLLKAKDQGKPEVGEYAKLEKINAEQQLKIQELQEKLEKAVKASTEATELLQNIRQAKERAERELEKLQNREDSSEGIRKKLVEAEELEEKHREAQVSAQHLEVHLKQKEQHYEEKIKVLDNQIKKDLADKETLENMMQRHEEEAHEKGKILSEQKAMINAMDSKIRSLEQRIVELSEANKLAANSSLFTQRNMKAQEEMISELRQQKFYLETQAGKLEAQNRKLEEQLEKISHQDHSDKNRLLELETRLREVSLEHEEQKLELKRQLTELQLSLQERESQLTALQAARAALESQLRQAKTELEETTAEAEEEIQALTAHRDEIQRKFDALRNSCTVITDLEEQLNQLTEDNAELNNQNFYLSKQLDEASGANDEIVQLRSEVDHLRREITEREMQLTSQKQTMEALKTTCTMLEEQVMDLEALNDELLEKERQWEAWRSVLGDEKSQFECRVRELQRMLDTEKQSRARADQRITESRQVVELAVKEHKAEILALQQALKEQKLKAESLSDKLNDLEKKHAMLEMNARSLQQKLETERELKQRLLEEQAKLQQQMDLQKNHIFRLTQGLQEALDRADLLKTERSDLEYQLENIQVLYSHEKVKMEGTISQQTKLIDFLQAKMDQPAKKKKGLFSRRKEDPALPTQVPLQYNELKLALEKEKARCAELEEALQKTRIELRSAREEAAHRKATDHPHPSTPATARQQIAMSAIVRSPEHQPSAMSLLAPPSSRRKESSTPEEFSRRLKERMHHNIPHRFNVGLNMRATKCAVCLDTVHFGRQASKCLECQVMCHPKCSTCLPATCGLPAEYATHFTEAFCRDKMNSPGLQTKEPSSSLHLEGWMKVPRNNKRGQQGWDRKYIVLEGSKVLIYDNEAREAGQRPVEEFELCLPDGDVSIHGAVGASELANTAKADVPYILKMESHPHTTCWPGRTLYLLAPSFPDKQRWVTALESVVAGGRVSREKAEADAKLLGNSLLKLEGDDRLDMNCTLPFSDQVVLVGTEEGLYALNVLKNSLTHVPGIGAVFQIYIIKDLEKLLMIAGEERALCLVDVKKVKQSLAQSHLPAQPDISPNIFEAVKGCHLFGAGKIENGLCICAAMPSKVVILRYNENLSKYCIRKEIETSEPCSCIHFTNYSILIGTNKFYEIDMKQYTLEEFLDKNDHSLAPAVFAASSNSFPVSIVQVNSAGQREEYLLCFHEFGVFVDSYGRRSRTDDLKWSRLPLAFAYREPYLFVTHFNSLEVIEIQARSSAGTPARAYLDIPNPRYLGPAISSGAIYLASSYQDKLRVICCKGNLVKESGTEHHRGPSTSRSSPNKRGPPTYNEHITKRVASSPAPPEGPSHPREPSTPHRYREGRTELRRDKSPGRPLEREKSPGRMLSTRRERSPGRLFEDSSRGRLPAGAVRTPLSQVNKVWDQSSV
Chain of TESK2 (Q96S53 whole entry): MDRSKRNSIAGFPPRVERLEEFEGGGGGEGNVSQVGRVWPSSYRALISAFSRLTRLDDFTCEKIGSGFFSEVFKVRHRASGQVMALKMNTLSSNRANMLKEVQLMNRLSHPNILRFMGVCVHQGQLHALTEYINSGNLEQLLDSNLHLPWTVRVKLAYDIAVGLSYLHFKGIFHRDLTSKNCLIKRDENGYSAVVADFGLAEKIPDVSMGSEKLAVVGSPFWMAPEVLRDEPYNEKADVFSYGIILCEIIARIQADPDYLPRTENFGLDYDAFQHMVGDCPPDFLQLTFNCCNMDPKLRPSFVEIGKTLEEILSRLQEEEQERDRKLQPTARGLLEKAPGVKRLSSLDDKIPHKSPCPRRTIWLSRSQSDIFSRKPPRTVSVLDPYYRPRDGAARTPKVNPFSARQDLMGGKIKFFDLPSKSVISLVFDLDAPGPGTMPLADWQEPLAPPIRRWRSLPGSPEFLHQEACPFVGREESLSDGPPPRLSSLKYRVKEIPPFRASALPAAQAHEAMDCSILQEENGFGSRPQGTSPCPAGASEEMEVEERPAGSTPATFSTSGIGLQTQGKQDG
Chain of PASK (Q96RG2 whole entry): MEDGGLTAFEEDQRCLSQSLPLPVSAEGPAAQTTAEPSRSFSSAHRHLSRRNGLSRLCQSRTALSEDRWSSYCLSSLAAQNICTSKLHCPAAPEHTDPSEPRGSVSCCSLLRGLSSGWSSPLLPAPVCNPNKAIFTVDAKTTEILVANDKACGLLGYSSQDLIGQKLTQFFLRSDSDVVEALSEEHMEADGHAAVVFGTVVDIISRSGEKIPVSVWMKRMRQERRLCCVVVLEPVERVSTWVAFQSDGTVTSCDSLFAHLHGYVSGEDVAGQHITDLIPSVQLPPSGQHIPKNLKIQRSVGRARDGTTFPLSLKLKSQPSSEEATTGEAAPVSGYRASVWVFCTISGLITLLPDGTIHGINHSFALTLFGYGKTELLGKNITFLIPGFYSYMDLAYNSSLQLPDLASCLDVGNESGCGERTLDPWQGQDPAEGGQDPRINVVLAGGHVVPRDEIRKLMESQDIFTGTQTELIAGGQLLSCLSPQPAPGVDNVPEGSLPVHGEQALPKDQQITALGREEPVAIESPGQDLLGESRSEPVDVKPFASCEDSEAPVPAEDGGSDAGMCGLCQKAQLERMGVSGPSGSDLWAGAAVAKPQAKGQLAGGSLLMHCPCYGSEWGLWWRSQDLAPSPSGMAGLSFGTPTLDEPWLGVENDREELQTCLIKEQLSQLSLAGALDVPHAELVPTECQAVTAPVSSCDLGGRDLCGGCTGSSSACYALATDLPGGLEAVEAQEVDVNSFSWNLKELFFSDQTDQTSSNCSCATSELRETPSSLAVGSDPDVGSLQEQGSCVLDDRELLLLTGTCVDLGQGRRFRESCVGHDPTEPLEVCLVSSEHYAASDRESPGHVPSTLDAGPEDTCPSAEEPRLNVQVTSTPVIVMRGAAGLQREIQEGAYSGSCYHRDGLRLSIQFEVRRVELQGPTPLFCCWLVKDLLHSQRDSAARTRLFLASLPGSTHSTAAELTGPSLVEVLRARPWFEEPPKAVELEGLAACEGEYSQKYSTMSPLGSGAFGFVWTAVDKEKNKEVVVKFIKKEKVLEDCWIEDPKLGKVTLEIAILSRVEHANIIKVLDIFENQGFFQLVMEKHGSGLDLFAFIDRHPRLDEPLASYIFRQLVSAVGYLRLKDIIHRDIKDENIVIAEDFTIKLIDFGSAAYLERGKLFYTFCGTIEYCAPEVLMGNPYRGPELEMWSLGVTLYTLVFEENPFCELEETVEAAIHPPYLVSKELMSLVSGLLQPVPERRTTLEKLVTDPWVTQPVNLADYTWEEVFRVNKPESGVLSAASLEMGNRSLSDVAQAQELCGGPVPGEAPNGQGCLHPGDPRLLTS
Chain of YES/YES1 (P07947 whole entry): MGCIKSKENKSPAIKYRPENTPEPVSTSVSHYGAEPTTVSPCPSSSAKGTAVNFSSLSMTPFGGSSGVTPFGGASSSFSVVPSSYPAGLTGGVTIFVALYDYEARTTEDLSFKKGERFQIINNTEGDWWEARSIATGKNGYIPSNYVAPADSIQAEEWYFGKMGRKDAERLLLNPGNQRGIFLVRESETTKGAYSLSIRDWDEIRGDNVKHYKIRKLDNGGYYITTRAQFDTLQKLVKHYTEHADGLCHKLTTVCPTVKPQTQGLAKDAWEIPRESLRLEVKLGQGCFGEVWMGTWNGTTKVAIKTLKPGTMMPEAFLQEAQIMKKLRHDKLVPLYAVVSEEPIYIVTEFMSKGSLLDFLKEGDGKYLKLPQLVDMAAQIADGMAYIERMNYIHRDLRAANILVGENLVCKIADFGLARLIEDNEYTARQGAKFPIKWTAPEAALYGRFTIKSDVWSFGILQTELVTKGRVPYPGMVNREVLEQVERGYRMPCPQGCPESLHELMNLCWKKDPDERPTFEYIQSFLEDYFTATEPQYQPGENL

Row | SMILES | remaining activity at 1 µM (PKCd) | remaining activity at 1 µM (YES/YES1) | % enzyme activity (CSK) | remaining activity at 1 µM (PASK) | % enzyme activity (TESK2) | % enzyme activity (PKN1/PRK1) | remaining activity at 1 µM (STK21/CIT) | % enzyme activity (BMX/ETK) | % enzyme activity (TYRO3/SKY) | remaining activity at 1 µM (MEK1)
1 | COc1cc(-c2cncc(-c3ccc(N4CCN(C)CC4)cc3)c2C)cc(F)c1C(N)=O [Compound 26a, 2-Fluoro-6-methoxy-4-(4-methyl-5-(4-(4-methylpiperazin-1-yl)phenyl)pyridin-3-yl)benzamide] | 99% | 105% | 99.36% | 94% | 93.89% | 96.76% | 88.8% | 102.04% | 83.48% | 97.5%
2 | COc1cc(-c2cncc(-c3ccc(N4C[C@@H](C)N(C)[C@@H](C)C4)cc3)c2C)cc(F)c1C(N)=O [Compound 26c, 2-Fluoro-6-methoxy-4-(4-methyl-5-(4-((3R,5S)-3,4,5-trimethylpiperazin-1-yl)phenyl)pyridin-3-yl)benzamide] | 101% | 109% | 102.04% | 99.2% | 92.03% | 96.39% | 89.1% | 100.72% | 93.66% | 95.1%
